# Data: ChEMBL document CHEMBL1130601, “Design and synthesis of 2-cyano-3,12-dioxoolean-1,9-dien-28-oic acid, a novel and highly active inhibitor of nitric oxide production in mouse macrophages” (Bioorg Med Chem Lett, 1998)
# Assays:
# Type in all cases: functional, organism-based
# [1] = species on record: Mus musculus; assay: Compound was evaluated for inhibitory activity against production of nitric oxide (NO) induced by interferon-gamma (IFN-gamma) in mouse macrophages at a concentration of 0.01-40 uM
# [2] = species on record: Mus musculus; assay: Compound was evaluated for inhibitory activity against production of nitric oxide (NO) induced by interferon-gamma (IFN-gamma) in mouse macrophages at a concentration of 0.01-40 uM; Toxic above 1 uM and not active below 1 uM
# [3] = species on record: Mus musculus; assay: Compound was evaluated for inhibitory activity against production of nitric oxide (NO) induced by interferon-gamma (IFN-gamma) in mouse macrophages at a concentration of 0.1-1 uM
# [4] = species on record: Mus musculus; assay: Compound was evaluated for inhibitory activity against production of nitric oxide (NO) induced by interferon-gamma (IFN-gamma) in mouse macrophages
smiles,measurement,setting,value
CC1(C)CC[C@]2(C(=O)O)CC[C@]3(C)[C@H](C(=O)C=C4[C@@]5(C)C=CC(=O)C(C)(C)[C@@H]5CC[C@]43C)[C@@H]2C1,IC50,[1],170 nM
CC1(C)CC[C@]2(C(=O)O)CC[C@]3(C)C(=CC[C@@H]4[C@@]5(C)C=C(C=O)C(=O)C(C)(C)[C@@H]5CC[C@]43C)C2C1 (stereo not given in full),IC50,[2],> 1000 nM
CC1(C)CC[C@]2(C(=O)O)CC[C@]3(C)C(=CC[C@@H]4[C@@]5(C)C=C(O)C(=O)C(C)(C)[C@@H]5CC[C@]43C)C2C1 (stereo not given in full),IC50,[1],37000 nM
CC1(C)CC[C@]2(C(=O)O)CC[C@]3(C)C(=CC(=O)[C@@H]4[C@@]5(C)C=CC(=O)C(C)(C)[C@@H]5CC[C@]43C)C2C1 (stereo not given in full),IC50,[1],1400 nM
CC1(C)CC[C@]2(C(=O)O)CC[C@]3(C)C(=CC[C@@H]4[C@@]5(C)C=CC(=O)C(C)(C)[C@@H]5CC[C@]43C)C2C1 (stereo not given in full),IC50,[1],7100 nM
COC1=C[C@]2(C)[C@H]3CC=C4C5CC(C)(C)CC[C@]5(C(=O)O)CC[C@@]4(C)[C@]3(C)CC[C@H]2C(C)(C)C1=O (stereo not given in full),IC50,[1],19000 nM
CC1(C)CC[C@]2(C(=O)O)CC[C@]3(C)C(=CC[C@@H]4[C@@]5(C)C=C(C#N)C(=O)C(C)(C)[C@@H]5CC[C@]43C)C2C1 (stereo not given in full),IC50,[1],600 nM
CC1(C)CC[C@]2(C(=O)O)CC[C@]3(C)[C@H](C(=O)C=C4[C@@]5(C)C=C(C#N)C(=O)C(C)(C)[C@@H]5CC[C@]43C)[C@@H]2C1 [BARDOXOLONE],IC50,[3],0.4 nM
C[C@@H]1C[C@H]2[C@@H]3CCC4=CC(=O)C=C[C@]4(C)[C@@]3(F)[C@@H](O)C[C@]2(C)[C@@]1(O)C(=O)CO [DEXAMETHASONE],IC50,[4],0.3 nM
CC1(C)CC[C@]2(C(=O)O)CC[C@]3(C)C(=CC[C@@H]4[C@@]5(C)CC[C@H](O)C(C)(C)[C@@H]5CC[C@]43C)[C@@H]2C1 [OLEANOLIC_ACID],IC50,[4],> 40000 nM
